{"source": "patent US10301344B2", "about": "“L-proline complex of sodium-glucose cotransporter 2 inhibitor, monohydrate and crystal form thereof” (Jiangsu Hengrui Medicine Co., Ltd., priority 2014, dated 2019)", "experiment": "Development form properties of the free compound and the complex (hygroscopicity, stability)"}
{"molecule": "1,6-anhydro-1-C-{4-chloro-3-[(3-fluoro-4-ethoxyphenyl)methyl]phenyl}-5-C-(hydroxymethyl)-β-L-idopyranose L-proline complex [complex of formula (I)]", "values": [{"measurement": "stability in comparison to the free compound", "value": "improved stability"}]}
{"molecule": "CCOc1ccc(Cc2cc(C34OC[C@](CO)(O3)C(O)[C@H](O)C4O)ccc2Cl)cc1F", "note": "(stereo in doubt) [1,6-anhydro-1-C-{4-chloro-3-[(3-fluoro-4-ethoxyphenyl)methyl]phenyl}-5-C-(hydroxymethyl)-β-L-idopyranose]", "values": [{"measurement": "hygroscopic properties", "setting": "free compound, background statement", "value": "hygroscopic"}]}
